The text below walks through data of PubChem BioAssay AID328 (DTP/NCI, 2004).

Several values for one entry are separate records, joined by “and”; a condition that tells them apart may be missing. Equal entries are not always repeated. Toxic doses and inconclusive results are not listed.

The assay concerns BDF1 mice, P388 leukemia ip, median survival T/C. Briefly: NCI In Vivo Anticancer Drug Screen. Data for tumor model P388 Leukemia (intraperitoneal) in B6D2F1 (BDF1) mice. The note with it: endpoint: median survival time, higher = longer survival. A digest of the protocol: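 Survival ratio, drug arm over vehicle arm, in mice with a transplanted tumour.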
Where [1] appears, read: dose: 12.5 mg/kg/injection, schedule: Q01DX009 (ip), vehicle: saline.
[2] abbreviates: dose: 50.0 mg/kg/injection, schedule: Q01DX009 (ip), vehicle: saline.
Where [3] appears, read: dose: 400.0 mg/kg/injection, schedule: Q04DX003 (ip), vehicle: saline.
Where [4] appears, read: dose: 25.0 mg/kg/injection, schedule: Q01DX009 (ip), vehicle: saline with Tween-80.
The mark [5] stands for this setting: dose: 50.0 mg/kg/injection, schedule: Q01DX009 (ip), vehicle: saline with Tween-80.
[6] abbreviates: dose: 100.0 mg/kg/injection, schedule: Q01DX009 (ip), vehicle: saline with Tween-80.
The mark [7] stands for this setting: dose: 25.0 mg/kg/injection, schedule: Q04DX003 (ip), vehicle: saline with Tween-80.
Where [8] appears, read: dose: 50.0 mg/kg/injection, schedule: Q04DX003 (ip), vehicle: saline with Tween-80.
The mark [9] stands for this setting: dose: 100.0 mg/kg/injection, schedule: Q04DX003 (ip), vehicle: saline with Tween-80.

Turning to `O=C1C=CC(=O)O1` (tested in a mixture with another compound), the T/C (dose: 0.19 mg/kg/injection, schedule: Q01DX009 (ip), vehicle: Klucel (hydroxypropylcellulose) (HPC)) is 100 % of control; the T/C (dose: 0.22 mg/kg/injection, schedule: Q01DX009 (ip), vehicle: Klucel (hydroxypropylcellulose) (HPC)) was 95 % of control; the T/C (dose: 0.39 mg/kg/injection, schedule: Q01DX009 (ip), vehicle: Klucel (hydroxypropylcellulose) (HPC)) is 118 % of control; the T/C (dose: 0.44 mg/kg/injection, schedule: Q01DX009 (ip), vehicle: Klucel (hydroxypropylcellulose) (HPC)) is 90 % of control; the T/C (dose: 0.78 mg/kg/injection, schedule: Q01DX009 (ip), vehicle: Klucel (hydroxypropylcellulose) (HPC)) was 90 % of control; the T/C (dose: 0.88 mg/kg/injection, schedule: Q01DX009 (ip), vehicle: Klucel (hydroxypropylcellulose) (HPC)) was 95 % of control. Further, the T/C is, setting by setting: (dose: 1.3 mg/kg/injection, schedule: Q01DX009 (ip), vehicle: Klucel (hydroxypropylcellulose) (HPC)) 109 % of control; (dose: 1.56 mg/kg/injection, schedule: Q01DX009 (ip), vehicle: other) 95 % of control; (dose: 2.3 mg/kg/injection, schedule: Q04DX003 (ip), vehicle: Klucel (hydroxypropylcellulose) (HPC)) 91 % of control; (dose: 3.5 mg/kg/injection, schedule: Q04DX003 (ip), vehicle: Klucel (hydroxypropylcellulose) (HPC)) 116 % of control; (dose: 5.2 mg/kg/injection, schedule: Q04DX003 (ip), vehicle: Klucel (hydroxypropylcellulose) (HPC)) 100 % of control; (dose: 5.8 mg/kg/injection, schedule: Q04DX003 (ip), vehicle: Klucel (hydroxypropylcellulose) (HPC)) 100 % of control. In addition, the T/C (dose: 6.25 mg/kg/injection, schedule: Q01DX009 (ip), vehicle: saline) is 88 % of control; the T/C (dose: 7.2 mg/kg/injection, schedule: Q04DX003 (ip), vehicle: Klucel (hydroxypropylcellulose) (HPC)) is 95 % of control; the T/C (dose: 8.8 mg/kg/injection, schedule: Q04DX003 (ip), vehicle: Klucel (hydroxypropylcellulose) (HPC)) was 100 % of control; the T/C under setting [1] was 97 % of control; the T/C (dose: 12.5 mg/kg/injection, schedule: Q04DX003 (ip), vehicle: saline) is 104 % of control; the T/C (dose: 13.0 mg/kg/injection, schedule: Q04DX003 (ip), vehicle: Klucel (hydroxypropylcellulose) (HPC)) was 104 % of control. Further, the T/C was 102 % of control (dose: 25.0 mg/kg/injection, schedule: Q04DX003 (ip), vehicle: saline); 102 % of control and 112 % of control and 113 % of control under setting [2]; 115 % of control and 122 % of control and 116 % of control (dose: 50.0 mg/kg/injection, schedule: Q04DX003 (ip), vehicle: saline); 122 % of control (dose: 150.0 mg/kg/injection, schedule: Q04DX003 (ip), vehicle: saline); 94 % of control [middle of 4 runs] (dose: 200.0 mg/kg/injection, schedule: Q01DX009 (ip), vehicle: saline); 100 % of control (dose: 300.0 mg/kg/injection, schedule: Q01DX009 (ip), vehicle: saline). Also, the T/C is, setting by setting: (dose: 300.0 mg/kg/injection, schedule: Q04DX003 (ip), vehicle: saline) 108 % of control and 114 % of control; under setting [3], 121 % of control.
Turning to `CC12CCC3C(CCC4=CC(=O)C(C(O)(C(F)(F)F)C(F)(F)F)CC43C)C1CC(C(O)(C(F)(F)F)C(F)(F)F)C2=O` (stereo not given), the T/C is 100 % of control (dose: 100.0 mg/kg/injection, schedule: Q01DX001 (sc), vehicle: steriod suspending solution); 100 % of control (dose: 200.0 mg/kg/injection, schedule: Q01DX001 (sc), vehicle: steriod suspending solution); 95 % of control (dose: 400.0 mg/kg/injection, schedule: Q01DX001 (sc), vehicle: steriod suspending solution).
For the molecule `O=[N+]([O-])c1ccc(/C=C/c2nccs2)o1`, the T/C is 100 % of control (dose: 100.0 mg/kg/injection, schedule: Q04DX003 (ip), vehicle: Klucel (hydroxypropylcellulose) (HPC)) and 103 % of control (dose: 200.0 mg/kg/injection, schedule: Q04DX003 (ip), vehicle: Klucel (hydroxypropylcellulose) (HPC)).
Take `Cc1ccc(N)c(Br)c1`: the T/C under setting [4] was 100 % of control, the T/C under setting [5] was 109 % of control and the T/C under setting [6] was 118 % of control.
Turning to `S=C(NCCCN1CCOCC1)NN=C1c2ccccc2-c2ccccc21`, the T/C under setting [5] is 97 % of control; the T/C under setting [6] is 91 % of control; the T/C (dose: 200.0 mg/kg/injection, schedule: Q01DX009 (ip), vehicle: saline with Tween-80) is 97 % of control.
On to `CC1(C)CN(Cc2ccccc2)C(C)(C)CN1N`, for which the T/C (dose: 6.25 mg/kg/injection, schedule: Q01DX009 (ip), vehicle: saline with Tween-80) was 97 % of control; the T/C (dose: 12.5 mg/kg/injection, schedule: Q01DX009 (ip), vehicle: saline with Tween-80) is 101 % of control; the T/C (dose: 12.5 mg/kg/injection, schedule: Q04DX003 (ip), vehicle: saline with Tween-80) was 111 % of control; the T/C under setting [4] is 97 % of control; the T/C under setting [7] was 107 % of control; the T/C under setting [5] was 115 % of control. The T/C was 107 % of control under setting [8] and 111 % of control under setting [9].
`Cc1ncc(CO)c(CO)c1O`: the T/C is, setting by setting: (dose: 100.0 mg/kg/injection, schedule: Q04DX003 (ip), vehicle: saline) 122 % of control; (dose: 200.0 mg/kg/injection, schedule: Q04DX003 (ip), vehicle: saline) 113 % of control; under setting [3], 95 % of control.
Regarding `CCOc1cc(/C=N\Nc2nncn2N)ccc1N(CCCl)CCCl`, the T/C is, setting by setting: (dose: 0.8 mg/kg/injection, schedule: Q04DX003 (ip), vehicle: saline with Tween-80) 113 % of control; (dose: 3.0 mg/kg/injection, schedule: Q04DX003 (ip), vehicle: saline with Tween-80) 154 % of control; (dose: 5.0 mg/kg/injection, schedule: Q04DX003 (ip), vehicle: saline with Tween-80) 169 % of control; (dose: 8.0 mg/kg/injection, schedule: Q04DX003 (ip), vehicle: saline with Tween-80) 165 % of control; (dose: 10.0 mg/kg/injection, schedule: Q04DX003 (ip), vehicle: saline with Tween-80) 210 % of control; (dose: 12.0 mg/kg/injection, schedule: Q04DX003 (ip), vehicle: saline with Tween-80) 203 % of control. Further, the T/C is, setting by setting: (dose: 18.0 mg/kg/injection, schedule: Q04DX003 (ip), vehicle: saline with Tween-80) 278 % of control and 154 % of control; (dose: 20.0 mg/kg/injection, schedule: Q04DX003 (ip), vehicle: saline with Tween-80) 275 % of control; (dose: 26.0 mg/kg/injection, schedule: Q04DX003 (ip), vehicle: saline with Tween-80) 300 % of control and 163 % of control; (dose: 40.0 mg/kg/injection, schedule: Q04DX003 (ip), vehicle: saline with Tween-80) 300 % of control and 105 % of control and 213 % of control.
Turning to `Cc1ccc2c(c1)NC(c1ccc(C(N)=S)cc1)N2` (stereo not given), the T/C by setting is: under setting [7], 97 % of control; under setting [8], 88 % of control; under setting [9], 87 % of control.
Consider `Cc1cccc(C(=O)CC(O)(C(F)(F)F)C(F)(F)F)c1`, for which the T/C is 104 % of control (dose: 100.0 mg/kg/injection, schedule: Q01DX001 (ip), vehicle: saline with Tween-80); 100 % of control (dose: 200.0 mg/kg/injection, schedule: Q01DX001 (ip), vehicle: saline with Tween-80); 109 % of control (dose: 400.0 mg/kg/injection, schedule: Q01DX001 (ip), vehicle: saline with Tween-80).
Regarding `CC1(C)N=C(N)N=C(N)N1c1ccccc1`, the T/C runs as follows: under setting [1], 118 % of control; (dose: 25.0 mg/kg/injection, schedule: Q01DX009 (ip), vehicle: saline) 113 % of control; under setting [2], 118 % of control.
As to `O=C1C(N2CCOCC2)=C(N2CC2)C(=O)C(N2CCOCC2)=C1N1CC1`, the T/C by setting is: (dose: 1.5 mg/kg/injection, schedule: Q01DX009 (ip), vehicle: saline) 105 % of control; (dose: 3.0 mg/kg/injection, schedule: Q01DX009 (ip), vehicle: saline) 94 % of control; (dose: 6.0 mg/kg/injection, schedule: Q01DX009 (ip), vehicle: saline) 94 % of control.
Turning to `CCCCCCCCCCSCCSCCSCCCCCCCCCC`, the T/C by setting is: (dose: 25.0 mg/kg/injection, schedule: Q01DX001 (ip), vehicle: Klucel (hydroxypropylcellulose) (HPC)) 100 % of control; (dose: 50.0 mg/kg/injection, schedule: Q01DX001 (ip), vehicle: Klucel (hydroxypropylcellulose) (HPC)) 100 % of control; (dose: 100.0 mg/kg/injection, schedule: Q01DX001 (ip), vehicle: Klucel (hydroxypropylcellulose) (HPC)) 100 % of control.
Turning to `O=[N+]([O-])/C=C/c1ccc([N+](=O)[O-])cc1`, the T/C reads like this: under setting [8], 118 % of control; under setting [9], 118 % of control.
